Series [1] relates to EMEG32 heterozygous mouse embryonic fibroblast cells. Kind of series: Cell proliferation growth curves over 5 days and western blot, EMEG32 heterozygous fibroblasts. Particulars: EMEG32 heterozygotes, 50 μM, 5 days. The format is cell-based. As to the method:
(A) Cell proliferation curves over the course of 5 days for CHO cells following no (circles), 50 μM Ac-GlcNAc (squares) or 50 μM Ac-5SGlcNAc (triangles) treatment. The error bars indicate the deviation from the mean for triplicate measurements. […] Upper panel, probed with anti-O-GlcNAc antibody (CTD110.6); lower panel, probed with anti-actin antibody. (B) Cell proliferation curves over the course of 5 days for EMEG heterozygous mouse embryonic fibroblast cells following no (circles), 50 μM Ac-GlcNAc (squares) or 50 μM Ac-5SGlcNAc (triangles) treatment. The error bars indicate the deviation from the mean for triplicate measurements. […] Upper panel, probed with anti-O-GlcNAc antibody (CTD110.6); lower panel, probed with anti-actin antibody. (C) Western blots of CHO cell lysates following no (C) or Ac-5SGlcNAc administration at 50 μM for 4 days. Probed with (from top to bottom) anti-Spl antibody, anti O-GlcNAc (CTD110.6) antibody and anti-actin antibody. Full blot of the anti-Sp 1 is shown in panel (d). (D) Western blots of CHO cell lysates following no (C) or Ac-5SGlcNAc administration at 50 μM for 4 days. The full blot probed with anti-Spl antibody is shown. (E) Western blots of COS-7 cell lysates following no (C) or 50 μM Ac-5SGlcNAc treatment for 24 h. Following treatment, the media was replaced with no inhibitor, and cells were harvested at the time points indicated (between 0 and 24 h). Upper panel, probed with anti-O-GlcNAc antibody (CTD110.6); lower panel, probed with anti-actin antibody.
Cellular responses to Ac-5SGlcNAc (9) treatment and consequent decreases in O-GlcNAc levels were evaluated. […] We quantitatively evaluated cell proliferation and established growth curves over the course of 5 days in both CHO and EMEG32 heterozygous mouse embryonic fibroblast cells treated with 50 μM Ac-5SGlcNAc (9), 50 μM Ac-GlcNAc (G), or vehicle (FIGS. 5A-B).
A general note: A western blot detects proteins with antibodies after separation by electrophoresis.

Series [2] deals with incorporation of azido sugar onto proteins in COS-7 cells. Kind of series: Metabolic feeding and Staudinger ligation with biotin phosphine, streptavidin-HRP blot. The format is cell-based, African green monkey. Particulars: 50 μM, 24 h. Here is the method: (A) Structures of the molecules used or generated during the chemoselective ligation study (X═O or S as indicated, R═H or Ac as indicated). (B) Western blots of COS-7 cell lysates administered specified agents at 50 μM for 24 h; vehicle only (C), Ac-GlcNAz or Ac-5SGlcNAz (41). Cells were harvested and then underwent the Staudinger ligation with biotin phosphine. Blots are probed with (from top to bottom) streptavidin-HRP, anti O-GlcNAc (CTD110.6) antibody and anti-actin antibody. (C) Western blot of immunoprecipitated nup62 from cell lysates following vehicle (C), 50 μM Ac-GlcNAz or Ac-5SGlcNAz (41) treatment for 24 h. Following immunoprecipitation, nup62 was incubated with buffer (−) or with BtGH84 (+) for 2 h to remove O-GlcNAc, and then underwent the Staudinger ligation with biotin phosphine. Blots are probed with streptavidin-HRP. […]
To probe the possibility that 5SGlcNAc is being incorporated onto proteins, we used a metabolic feeding and chemoselective ligation strategy using 2-azidoacetamido-2-deoxy-D-glucopyranose (GlcNAz), which can be assimilated by the HBP to form uridine diphospho-N-azidoacetylglucosamine (UDP-GlcNAz) and then be installed onto proteins as O-GlcNAz^9. […] Accordingly, we evaluated whether 2-azidoacetamido-2-deoxy-5-thio-D-glucopyranose (5SGlcNAz) is incorporated onto proteins to determine whether 5SGlcNAc might be transferred onto proteins in cells. […]

Series [3] concerns O-GlcNAc levels in COS-7 cells. Kind of series: Western blot of O-GlcNAc levels (CTD110.6) in treated COS-7 cells. Format: cell-based, African green monkey. Particulars: 50 μM, 24 h. As to the method: Cell culture: Cells were grown in an incubator at 37° C. and 5% CO2 atmosphere. Media and serum were purchased from Invitrogen. COS-7 cells were cultured in Dulbecco's modified Eagle's medium (DMEM) with 5% fetal bovine serum (FBS), and were typically 80-100% confluent prior to experimentation. HepG2, SK-N-SH, and EMEG32^−/− cells were cultured in Dulbecco's modified Eagle's medium (DMEM) with 5% fetal bovine serum (FBS), CHO cells in DMEMF-12 with 5% FBS and PC12 cells in DMEM with 5% FBS and 5% horse serum. Prior to experimentation, PC12 cells were plated at a density of 3-4×10^5 cells10 cm plate, which had been pre-treated with 5 μgcm^2 rat tail collagen (BD Biosciences). Cells were differentiated in DMEM containing 1% horse serum, in the presence of 2.5S mouse nerve growth factor (Chemicon) at a final concentration of 25 ng mL^−1, for 4-5 days prior to treatment. Other cell lines were 80-100% confluent prior to treatment. Following treatment with (Ac-)5SGlcNAc, using various conditions, cells were washed gently with PBS, lysed in SDS loading buffer and boiled for 10 minutes. Mouse hybridoma cells (obtained from the Developmental Studies Hybridoma Bank; antibody E7 for (:1-tubulin) were cultured in RPMI40 with 10% FBS. Prior to treatment with Ac-5SGlcNAc, hybridoma cells were cultured for 2 days in RPMI40 with 5% FBS, and during treatment in RPMI40 with no serum. Cells were collected, centrifuged (800 x g, 5 min) and the supernatant removed. Cells were washed with PBS, centrifuged, the pellet resuspended in SDS loading buffer and boiled. The supernatant after centrifugation, which contained the IgG antibody produced by the cells, was used for immunoprecipitation (see below for details).
Westernlectin blots: Samples were run on 10% SDS polyacrylamide gels and transferred onto nitrocellulose membranes (Biorad). Membranes were blocked for 1 h in PBS containing 0.1% Tween-20 (PBS-T) containing 1% (unless otherwise stated) bovine serum albumin (BSA), and probed with the appropriate primary antibody or lectin in 1% BSA in PBS-T overnight at 4° C. Blots were washed for 1 hr with PBS-T, and blocked for a further 30 min with 1% BSA in PBS-T at room temperature. They were then probed with the appropriate horseradish peroxidise (HRP)-conjugated secondary antibodyprobe in 1% BSA in PBS-T at room temperature for 1 h, followed by washing in PBS-T for 1 h. Blots were developed with SuperSignal West Pico Chemiluminescent Substrate (Pierce) and exposed to CL-XPosure film (Pierce). Densitometry was performed using ImageQuant 5.2 (Molecular Dynamics), and fits to the data were made using GRAFIT^41.
Antibodieslectins: O-GlcNAc levels were assessed primarily using CTD110.6 (Covance), but RL2 (Abcam) and HGAC85 (Abcam) were also tested. Actin was probed using JLA20 (Developmental Studies Hybridoma Bank). OGA levels were assessed using a polyclonal anti-OGA antibody which was a kind gift from Dr. Gerald Hart and OGT levels using H-300 (Santa Cruz Biotechnology). nup62 was probed using mAb 414 (Covance). Secondary antibodies employed (HRP-conjugated goat anti-mouse IgM, goat anti-mouse IgG, goat anti-chicken IgY and goat anti-rabbit IgG) were obtained from Santa Cruz Biotechnology. Biotinylated-ConA, PHA-L, SNA and MAA were purchased from EY Laboratories, and biotinylated-GNA from Vector Laboratories. HRP-conjugated streptavidin (Pierce) was used as a probe for the biotinylated lectins.
Analogues (9, 10, 17-41) were tested in COS-7 cells, dosed at a final concentration of 50 μM in DMSO for 24 h. Following treatment, cells were washed with PBS, harvested into SDS-PAGE loading buffer and analyzed by western blot using standard procedures; blots were probed with the anti-O-GlcNAc antibody (CTD 110.6).

Series [4] has as its system O-GlcNAc levels in mice tissues. Briefly: O-GlcNAc levels in mouse tissues after intraperitoneal dosing. The format is in vivo. Particulars: 300 mg/kg intraperitoneally, 16 hours. As to the method:
Ac-5SGlcNAc 9 and the deprotected analogue with the hexyl substituent at the C2 position 28 have been analyzed for effectiveness at decreasing O-GlcNAc levels in mice. Pilot studies were conducted with mice dosed in triplicate with either compound or vehicle alone. Compounds were dosed at 300 mg/kg intraperitoneally using 75% DMSO as vehicle for delivery of 9 and phosphate-buffered saline (PBS) for delivery of 28. Mice were euthanized using a CO2 chamber after 16 hours exposure to either compound, and tissues (liver, lung, heart, kidney, spleen, pancreas, brain, blood, fat and muscle) harvested and flash frozen in liquid nitrogen. Frozen tissues were ground using a pestle and mortar, and resuspended in cell lysis buffer (50 mM NaH2PO4, 150 mM NaCl, 0.1% SDS, 1% NP-40, 0.25% sodium deoxycholate, 1 mM EDTA, 30 mM sodium fluoride, 30 mM β-glycerophosphate, 5 mM sodium pyrophosphate, 1 mM Thiamet-G, protease inhibitor cocktail (Roche)) at a concentration of 100 mg tissue1 mL buffer prior to homogenization. Homogenates were centrifuged at 13,000 rpm for 20 min, the supernatant removed, added to 2×SDS-PAGE loading buffer and boiled for […]. SDS-PAGE and western blots were performed using standard procedures. Blots were probed using anti-O-GlcNAc antibody (CTD110.6, Santa Cruz Biotechnology) and anti-actin antibody for a loading control.

For `CC(=O)N[C@H]1[C@H](OC(C)=O)O[C@H](COC(C)=O)[C@@H](OC(C)=O)[C@@H]1OC(C)=O` [Ac-GlcNAc, reference compound], the growth rate result in series [1] is reported as “indistinguishable but were both lower than vehicle treated cells”.

With “2-azidoacetamido-2-deoxy-5-thio-D-glucopyranose [Compound 5SGlcNAz]”, in series [2], the “streptavidin signal after Staudinger ligation (accumulation of azido sugar on proteins)” value is on record as “does not accumulate on proteins to any measurable level”.

In the case of `CC(=O)OC[C@H]1O[C@H](OC(C)=O)[C@H](NC(=O)CN=[N+]=[N-])[C@@H](OC(C)=O)[C@@H]1OC(C)=O` [Ac-GlcNAz, 1,3,4,6-tetra-O-acetyl-2-azidoacetamido-2-deoxy-ot-D-glucopyranose, reference compound], the “effect on O-GlcNAc levels at single dose” value in series [3] is “only 5SGlcNAz decreased O-GlcNAc levels”. Also, the “streptavidin signal after Staudinger ligation (accumulation of azido sugar on proteins)” value in series [2] is listed as “Only proteins from cells treated with Ac-GlcNAz revealed any signal”.

As for `CCCCCC(=O)NC1C(O)SC(CO)C(O)C1O` [Compound 28, N-Hexonoyl-a-D-5-thio-glucosamine], in series [3], the “effect on O-GlcNAc levels at single dose” value was “decreased O-GlcNAc levels in cells” and the “extent of decrease of O-GlcNAc levels relative to parent compound 9” value is on record as “comparable extent to the parent compound”. For the same compound, in series [4], the “O-GlcNAc levels in tissues” value was “effective at decreasing O-GlcNAc levels during the 16 hour dosing period in the liver, lung, heart, kidney, spleen, pancreas, fat and muscle”.

The values above are taken from US20150259371A1, “METHODS AND COMPOUNDS FOR INHIBITING GLYCOSYLTRANSFERASES” (SIMON FRASER UNIVERSITY, priority 2010, published 2015).
